Measurements from ChEMBL document CHEMBL1156111, “Identification of the amino acid-AZT-phosphoramidase by affinity T7 phage display selection” (Bioorg Med Chem Lett, 2009).

Biological target: Adenosine 5'-monophosphoramidase HINT1 (Homo sapiens) (UniProt P49773)
Test: Ratio of kcat to km for human HINT1

Adenosine 5'-monophosphoramidase HINT1 (Homo sapiens), sequence (P49773 whole entry): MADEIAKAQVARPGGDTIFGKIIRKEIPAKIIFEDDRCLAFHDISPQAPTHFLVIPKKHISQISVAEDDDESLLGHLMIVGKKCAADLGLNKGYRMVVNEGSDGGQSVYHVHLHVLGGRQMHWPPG

- Ratio: 25
Compound: Cc1cn([C@H]2C[C@H](N=[N+]=[N-])[C@@H](COP(=O)(O)NCc3c[nH]c4ccccc34)O2)c(=O)[nH]c1=O
